Measurements taken from patent US20100069340A1, “PHARMACEUTICAL COMPOSITIONS OF AN SRC KINASE INHIBITOR AND AN AROMATASE INHIBITOR” (Wyeth, priority 2008, published 2010).
Read-outs that look alike come from different tables or passages of the source.

How the values were obtained:
MDA-MB-468 (ER neg) = assay: Cell proliferation assay, MDA-MB-468; format: cell-based; conditions: Homo sapiens, MDA-MB-468, 72 h; 3 Day assay, complete medium (10% FCS)
Experimental: (§1) Cell lines were obtained from ATCC. Estrogen was obtained from SIGMA, 4-hydroxytamoxifen was obtained from SIGMA, Bosutinib was used for these studies. Charcoal-stripped serum and phenol red-free medium was obtained from Invitrogen. CellTiter Glo was obtained from Promega.
Cell cultures. Proliferation assays with cells in complete fetal calf serum were performed with medium containing phenol red. For all assays examining estrogen-dependence, cells were cultured in phenol red-free medium; DMEM/F12 (MCF7), RPMI1640 (MDA-MB-361, T47D) MEM (BT20, MDA-MB-231) McCoys5A modified (SKBR3), Leibowitz' L15 medium supplemented with 10 ng/mL insulin (MDA-MB-435 and MDA-MB-468) with 10% fetal bovine serum supplemented with glutamine and gentamicin. For proliferation assays, trypsinized cells were subjected to three cycles of centrifugation and resuspension in phenol red-free medium supplemented with charcoal stripped medium (5% final), glutamine and Pen/Strep. Cells were plated on day 0, with or without estrogen (10 nM final concentration). On day 1, 4-hydroxytamoxifen and SKI-606 or DMSO were added as a serial dilution. […] After mixing and two hours incubation on the bench, plates were read on an Envision reader. […] The 10 uM data point was dropped for these two lines since there was a clear plateau prior to the sharp drop in luminescence observed at 10 uM compound. […]

clinical = conditions: for AUC: Mean steady state AUC; for Cmax: Mean steady state Cmax
Experimental: A phase 1 single-agent trial of bosutinib to determine the safety, tolerability, and pharmacokinetics of orally administered bosutinib in subjects with advanced-stage, previously treated, solid tumors is currently ongoing. […] Subjects are continued on bosutinib until disease progression, or the occurrence of a significant toxicity considered possibly related to bosutinib. Dosing was started at 50 mg per day. Subsequent dose levels studied have included 100 mg, 200 mg, 300 mg, 400 mg, 500 mg and 600 mg. Safety is assessed for 21 days in 3 to 6 subjects before beginning the cohort at the next incremental dose.

SKBR3 (ER neg) = assay: Cell proliferation assay (CellTiter Glo), SKBR3; format: cell-based; conditions: Homo sapiens
Experimental: as §1
Cell cultures. Proliferation assays with cells in complete fetal calf serum were performed with medium containing phenol red. For all assays examining estrogen-dependence, cells were cultured in phenol red-free medium; DMEM/F12 (MCF7), RPMI1640 (MDA-MB-361, T47D) MEM (BT20, MDA-MB-231) McCoys5A modified (SKBR3), Leibowitz' L15 medium supplemented with 10 ng/mL insulin (MDA-MB-435 and MDA-MB-468) with 10% fetal bovine serum supplemented with glutamine and gentamicin. For proliferation assays, trypsinized cells were subjected to three cycles of centrifugation and resuspension in phenol red-free medium supplemented with charcoal stripped medium (5% final), glutamine and Pen/Strep. Cells were plated on day 0, with or without estrogen (10 nM final concentration). On day 1, 4-hydroxytamoxifen and SKI-606 or DMSO were added as a serial dilution. Cells were incubated for 7 days, after which CellTiter Glo (Promega) was added as recommended by the manufacturer. After mixing and two hours incubation on the bench, plates were read on an Envision reader. […] The IC50 was calculated using a floating minima corresponding to the lowest luminescence value at 5 uM.
Cell proliferation assays were performed in two formats; a three day proliferation assay in fully supplemented medium with phenol red, and a 7 day proliferation assay in phenol red free medium supplemented with charcoal-stripped medium.
The complete medium data were obtained in 3-day assays, while stripped serum assays were extended for 7 days with one change of medium at day 5.

[1] = tested on: advanced or metastatic breast cancer; assay: Phase 2 open-label study of bosutinib, efficacy; format: in vivo, human; conditions: 400 mg once-daily
Experimental: In a phase 2, open-label, study of bosutinib in subjects with advanced or metastatic breast cancer where bosutinib is given at 400 mg once-daily, 73 total patients were randomized. As of 9 Jun. […] All of the responding patients had ER/PgR+ metastatic disease, but were less heavily pretreated with chemotherapy than typical patients and none had received prior endocrine therapy. […] In that trial, the median PFS was 15 weeks for all patients, 15.6 weeks and 14.9 weeks in ER+ and/or PgR+ and ER+ and/or PgR+, HER2-patients subgroups, respectively. There were 51 ER/PgR+ patients enrolled in the trial and a little more than half had received prior endocrine therapy, out of them 33 patients were ER/PgR+, HER2-. The preliminary safety data available for 73 subjects as of 9 Jun. 2008 are consistent with data from other ongoing studies. TEAEs were most frequently associated with gastrointestinal disorders (diarrhea, 66%; nausea, 55%; vomiting, 47%; abdominal pain, 12%; dyspepsia, 10%), general disorders (fatigue, 26%, asthenia, 19%, peripheral oedema, 11%; pyrexia, 10%), infections and infestations (16%), metabolism disorders (ALT increase, 12%; AST increase, 12%, weight loss, 11%; anorexia, 18%), musculoskeletal disorders (anthralgia, 12%; back pain, 12%), headache (14%), and rash (14%). Out of all of these TEAEs, only gastrointestinal disorders (diarrhea, 64%; nausea, 51%; vomiting, 42%; abdominal pain, 10%), general disorders (fatigue, 16%, asthenia, 14%), metabolism disorders (ALT increase, 11%; AST increase, 10%; anorexia, 15%) and rash (10%) were considered at least possibly related to bosutinib.

COc1cc(Nc2c(C#N)cnc3cc(OCCCN4CCN(C)CC4)c(OC)cc23)c(Cl)cc1Cl [bosutinib]
IC50 (MDA-MB-468 (ER neg)): 5 µM
Mean steady state AUC (clinical; human, in vivo, po): 3660 ng·h/mL
Mean steady state Cmax (clinical; human, in vivo, po): 200 ng/mL
Multiple-dose exposure versus single-dose exposure (clinical; human, in vivo, po): 2-3 fold
Tmax (clinical; human, in vivo, po): 3 to 6 h
half-life (clinical; human, in vivo, po): 22 to 25 h
AUC (clinical; human, in vivo, po, 600 mg): 3360 ng·h/mL
Cmax (clinical; human, in vivo, po, 600 mg): 208 ng/mL
AUC (clinical; human, in vivo, po): 2580 ng·h/mL
Cmax (clinical; human, in vivo, po): 157 ng/mL
Dose limiting toxicities observed (clinical; in vivo, po): nausea, vomiting, diarrhea, and rash
protocol-defined maximum tolerable dose (clinical; subjects with multiple-relapsed solid tumors, oral): 500 mg daily
IC50 (SKBR3 (ER neg); SK-BR-3, 72 h, 3 Day assay, complete medium (10% FCS), read-out: IC50 (uM) 10% FCS): 1.5 µM
IC50 (SKBR3 (ER neg); SK-BR-3, 168 h, 7 Day assay, charcoal stripped serum, no phenol red, 10 nM estrogen, read-out: IC50 (uM) E2): 1.38 µM
IC50 (SKBR3 (ER neg); SK-BR-3, 168 h, 7 Day assay, charcoal stripped serum, no phenol red, without estrogen, read-out: IC50 (uM) no E2): 1.43 µM
tumor shrinkage in the near response [1]: 29%
clinical benefit ([1]; 73 patients, responders plus stable disease ≧24 weeks): 27.4%
near response ([1]; of 73 patients): 1
partial response ([1]; of 73 patients): 4 subjects
stable disease ≧24 weeks ([1]; of 73 patients): 13 patients
median PFS ([1]; ER+ and/or PgR+ subgroup): 15.6 weeks
median PFS ([1]; ER+ and/or PgR+, HER2- subgroup): 14.9 weeks
median PFS ([1]; all patients): 15 weeks
